{"source": "patent US20170144987A1", "about": "“NOVEL CRYSTALLINE POLYMORPHS OF PYRIDINE DERIVATIVE AND METHOD FOR PRODUCING THE SAME” (TEIJIN PHARMA LIMITED, priority 2014, published 2017)", "key": {"[1]": {"biological_target": "T1, human URAT1 (Homo sapiens, UniProt Q96S37)", "T1 construct": "Full-length cDNA of human URAT1 (hURAT1)", "T1 sequence (Q96S37 1-553)": "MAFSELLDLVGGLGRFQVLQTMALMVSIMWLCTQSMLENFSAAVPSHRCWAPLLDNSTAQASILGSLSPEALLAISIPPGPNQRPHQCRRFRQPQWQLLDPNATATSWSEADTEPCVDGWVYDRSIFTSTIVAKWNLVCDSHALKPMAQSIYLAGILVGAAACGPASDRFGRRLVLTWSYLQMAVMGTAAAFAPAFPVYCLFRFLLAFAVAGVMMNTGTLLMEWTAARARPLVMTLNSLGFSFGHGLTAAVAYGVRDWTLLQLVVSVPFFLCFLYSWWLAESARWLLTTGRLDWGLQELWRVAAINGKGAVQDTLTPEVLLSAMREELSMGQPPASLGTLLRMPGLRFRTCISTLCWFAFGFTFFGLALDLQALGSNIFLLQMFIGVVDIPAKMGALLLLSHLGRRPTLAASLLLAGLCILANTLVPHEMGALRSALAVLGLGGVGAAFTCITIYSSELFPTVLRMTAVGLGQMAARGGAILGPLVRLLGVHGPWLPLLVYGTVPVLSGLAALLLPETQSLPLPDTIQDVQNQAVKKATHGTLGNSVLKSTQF", "test": "Test for inhibition of uric acid transport using human URAT1-expressing cells", "type": "cell-based", "conditions": "HEK 293 cells expressing human URAT1; 14C-labeled uric acid 25 μM; uptake 37° C. for 5 min; read-out: IC50 (concentration of the compound at which the uric acid transport rate is inhibited by 50%)", "experimental": "Test for Inhibition of Uric Acid Transport Using Human URAT1-Expressing Cells\n2-(5-chloropyridin-3-yl)-1-(2,5-dichlorobenzyl)-4-methyl-1H-imidazole-5-carboxylic acid was dissolved in DMSO (produced by Sigma) to a concentration of 20 mM and the concentration was subsequently adjusted to a value desired for use. Full-length cDNA of human URAT1 (hURAT1) (produced by OriGene Technologies, Inc., NCBI Reference Sequence: NM 144585) was subcloned into an expression vector, pCMV6-Kan/Neo (produced by OriGene Technologies, Inc.), and hURAT1 gene was transfected into human embryonic kidney-derived cells (HEK 293 cells) by liposome method using Lipofectamine 2000 (produced by Invitrogen Corporation), whereupon HEK 293 cells expressing human URAT1 gene were selected on the basis of Geneticin resistance. […]\nAfter the medium was removed by aspiration from each well, the medium was replaced with a solution obtained by substituting NaCl in Hank's Balanced Salt Solution (HBSS) with Na gluconate (hereinafter, HBSS/Na-gluconate) and the cells were preincubated at 37° C. for about 10 minutes. […] The cell sample and a liquid scintillation liquid, ULTIMA GOLD (produced by PerkinElmer, Inc.) were mixed and the radioactivity was measured by a liquid scintillation counter (Beckman Coulter, Inc.). […]"}, "[2]": {"tested_on": "Cebus apella", "test": "Drug efficacy evaluation test for Cebus apella (uric acid excretion rate)", "type": "in vivo", "conditions": "3 mg/kg to 30 mg/kg in 0.5% methylcellulose, administered from the nasal cavity to the stomach, samples up to 24 hours", "experimental": "Drug Efficacy Evaluation Test for Cebus Apella 2-(5-chloropyridin-3-yl)-1-(2,5-dichlorobenzyl)-4-methyl-1H-imidazole-5-carboxylic acid (3 mg/kg to 30 mg/kg) dispersed in a 0.5% methylcellulose solution was administered to Cebus apella from the nasal cavity to the stomach using a disposable catheter and a syringe barrel. Blood samples were taken before administration and 30 minutes, 1 hour, 2 hours, 4 hours, 8 hours, 12 hours, and 24 hours after administration; and urine samples were collected for the time intervals of immediately after to 4 hours after administration, from 4 hours to 8 hours after administration, from 8 hours to 16 hours after administration, and from 16 hours to 24 hours after administration. Concentrations of uric acid and creatinine in the blood and urine samples collected were measured by an automatic analyzer (JEOL Ltd.). Uric acid and […] were measured using L-type Wako UA•F (Wako Pure Chemicals Industries, Ltd.) and L-type Creatine F (Wako Pure Chemicals Industries, Ltd.), respectively. Uric acid clearance was calculated from the uric acid concentrations in blood and urine and, similarly, creatinine clearance was calculated from the creatinine concentrations."}}, "note": "pIC50: −log10 of the molar value."}
{"smiles": "Cc1nc(-c2cncc(Cl)c2)n(Cc2cc(Cl)ccc2Cl)c1C(=O)O", "note": "[2-(5-chloropyridin-3-yl)-1-(2,5-dichlorobenzyl)-4-methyl-1H-imidazole-5-carboxylic acid]", "values": [{"measurement": "pIC50", "setting": "[1]", "value": "≥ 6.70"}, {"measurement": "activity to promote uric acid excretion (uric acid excretion rate)", "setting": "[2]", "value": "excellent activity to promote uric acid excretion"}]}
